# Data: patent publication US20110319603A1, “METHOD FOR FLU[…] PROTEIN” (OSAKA UNIVERSITY, priority 2009, published 2011)
# Columns and labels:
# [1] = system: MBP-PYP expressed in HEK293T cells; assay: Labeling reaction with CATP in cultured cell, MBP-PYP (fluorescence microscopy); assay type: cell-based, Halorhodospira halophila; conditions: CATP 5 μM, 30 minutes
# Method: (§1) A plasmid was prepared in which a gene MBP-PYP obtained by fusing a maltose binding protein (MBP) with a PYP was introduced into the multicloning site of pcDNA3.1, which was a mammalian expression vector. Furthermore, in order to express a PYP on the cell surface, a plasmid was prepared in which a gene PYP-TM obtained by fusing a PYP with the transmembrane domain of a platelet-derived growth factor receptor (PDGFR) was introduced into the multicloning site of pcDNA3.1, which was a mammalian expression vector. HEK293T cells were transfected with these plasmids by using lipofectamine 2000. After transfection with the plasmids, the HEK293T cells were allowed to stand at 37° C. for 36 hours and then washed with a phosphoric acid buffer (PBS). A culture medium containing CATP (5 μM) was added thereto, which then was allowed to stand for 30 minutes.
# PYP [2] = target: T1, PYP (Halorhodospira halophila, UniProt P16113); assay: Reaction between PYP and FCTP, analyzed by SDS-PAGE (CBB-stained and fluorescent image); assay type: binding
# T1 construct: His tag (with enterokinase cleavage site) (N, cleaved yes); made in house; host or cells: E. coli BL21 (DE3), pET-21b(+) (pET-PYP)
# T1 sequence (P16113 1-125): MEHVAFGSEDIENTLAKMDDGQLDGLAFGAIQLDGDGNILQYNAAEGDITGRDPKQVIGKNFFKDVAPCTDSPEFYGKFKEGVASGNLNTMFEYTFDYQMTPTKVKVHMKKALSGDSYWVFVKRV
# Method: In Tris buffer (20 mM Tris-HCl, 150 mM NaCl, 1 mM TCEP (pH 8.0)), 5 μM of PYP was reacted with 12.5 μM of compound FCTP at 37° C. for 24 hours. After completion of the reaction, the result was analyzed by SDS-PAGE (20% acrylamide separation gel). […] With reference to FIG. 1(b), similarly in the fluorescent image, fluorescence was observed.
# [3] = system: PYP-TM expressed on HEK293T cells; assay: Labeling reaction with CATP in cultured cell, PYP-TM (fluorescence microscopy); assay type: cell-based, Halorhodospira halophila; conditions: CATP 5 μM, 30 minutes
# Method: as §1
# PYP [4] = target: T1, PYP; assay: Fluorescent properties of FCTP (fluorescence and excitation spectra with and without PYP); conditions: 8 μM compound, Tris buffer pH 8.0, 37° C.
# Method: In order to examine the fluorescent properties of compound FCTP bound to the PYP, Tris buffer (20 mM Tris-HCl, 150 mM NaCl, 1 mM TCEP (pH 8.0)), the fluorescence and excitation spectra were measured at 37° C.
# PYP [5] = target: T1, PYP; assay: Reaction of compound FCTP with PYP in HEK293T cell lysate, SDS-PAGE; assay type: binding
# Method: In a HEK293T cell lysate dissolved in Tris buffer (20 mM Tris-HCl, 150 mM NaCl, 1 mM TCEP (pH 8.0)), 5 μM of PYP was reacted with 50 μM of compound FCTP at 37° C. for 30 minutes in the presence or absence of 10 mM MESNa. After completion of the reaction, it was analyzed by SDS-PAGE (20% acrylamide separation gel). […] On the other hand, the fluorescent band on the high molecular weight side disappeared upon addition of MESNa (10 mM), which was a type of thiol compound. It was confirmed that an addition of a certain amount of free thiol allowed labeling to be carried out specifically in the cell lysate.
# [6] = system: PYP-TM expressed on HEK293T cells; assay: Labeling reaction with FCTP in cultured cell (fluorescence microscopy); assay type: cell-based, Halorhodospira halophila; conditions: FCTP 20 μM, 30 minutes
# Method: In order to express a PYP on the cell surface, a plasmid was prepared in which a gene PYP-TM obtained by fusing a PYP with the transmembrane domain of a platelet-derived growth factor receptor (PDGFR) was introduced into the multicloning site of pcDNA3.1, which is a mammalian expression vector. HEK293T cells were transfected with this plasmid by using lipofectamine 2000. After transfection with the plasmid, the HEK293T cells were allowed to stand at 37° C. for 36 hours and then washed with a phosphoric acid buffer (PBS). A culture medium containing FCTP (20 μM) was added thereto, which then was allowed to stand for 30 minutes. […] With the fluorescence microscope having an excitation wavelength of 488 nm, the cells were observed using a fluorescent filter of 510 to 550 nm.
SMILES,fluorescent labeling in cells in which MBP-PYP was not expressed [1],fluorescent labeling in cells in which MBP-PYP was expressed ([1]; excitation 436 nm),thioester bond between the PYP and compound upon addition of DTT (PYP [2]; DTT (100 mM) added after labeling),fluorescent labeling in cells where PYP-TM was not expressed [3],fluorescent labeling in PYP-TM expressed cells ([3]; excitation 436 nm),"labeling of the PYP (slowly migrating band, fluorescence on gel) (PYP [2]; 5 μM PYP, 12.5 μM compound, Tris buffer pH 8.0, 37° C., 24 hours)","fluorescence intensity of compound in the presence of PYP (PYP [4]; 5 μM PYP, time-dependent)","fluorescence intensity of compound alone (PYP [4]; no PYP, excitation at 500 nm)","fluorescent labeling of PYP in cell lysate (PYP [5]; 5 μM PYP, 50 μM compound, 37° C., 30 minutes)",fluorescent band in the high molecular weight range (non-specific labeling) in cell lysate (PYP [5]; absence of MESNa),fluorescent band on the high molecular weight side in cell lysate (PYP [5]; addition of MESNa (10 mM)),fluorescent labeling in cells where PYP-TM was not expressed [6],fluorescent labeling in PYP-TM expressed cells ([6]; excitation 488 nm)
[N-]=[N+]=NCCOCCOCCOCc1cc(O)cc2oc(=O)c(C(=O)Sc3ccccc3)cc12 [CATP],not observed,observed,hydrolyzed by a large excess of DTT,neither fluorescent labeling with FCTP nor that with CATP was observed,observed,,,,,,,,
O=C(NCc1cn(COCCOCCOCc2cc(O)cc3oc(=O)c(C(=O)Sc4ccccc4)cc23)nn1)c1ccc(C(=O)O)c(-c2c3ccc(=O)cc-3oc3cc(O)ccc23)c1 [FCTP],,,,,,able to label the PYP,increased in the presence of the PYP with the passage of time,very weak,fluorescence was observed in the vicinity of the PYP band,another fluorescent band was observed in the high molecular weight range,disappeared,neither fluorescent labeling with FCTP nor that with CATP was observed,observed
